Data from patent US6759557B2, “Melanin production inhibitors and skincare products containing such inhibitors” (Takasago International Corporation, priority 2001, dated 2004).

System: melanoma cells B-16
Assay: Inhibiting effect on melanin synthesis in pigment cells (whiteness of cell residue observed by eye)
Type: cell-based
Design: key to whiteness of cells rated by eye (melanin synthesis inhibition): −: same colour as the comparative solvent example (black); +: slight colour difference from the comparative solvent example (black grey); ++: clear colour difference from the comparative solvent example (white grey); +++: no colour in the cells (white)
Details: for whiteness of cells rated by eye (melanin synthesis inhibition): 4 days, B-16 melanoma cells
Experimental: In plastic culture flasks ([…]), 5×10^4 of melanoma cells B-16 were respectively inoculated and cultivated at 37° C. in DMEM culture media each containing 10% of blood serum (Nippon Suisan Co. Ltd) in the presence of 5% of carbon dioxide. After two days of cultivation, test samples diluted with ethanol were added to the culture media, so as to set their concentrations, respectively, at 1.6, 3.1 and 6.3 ppm for the compounds of Formula (1) where X is —CO— or —CHOH—, and at 0.8, 1.6 and 3.1 ppm for the compounds of Formula (1) where X is —CO—CHOH—. The culture media were further cultivated for 4 days.
When the cultivation was terminated, the culture media were removed from the respective flasks and the remaining cells were rinsed with a phosphate buffer solution (PBS hereinafter). The cells in each flask were treated with a culture medium containing trypsin and EDTA (ethylenediaminetetracetic acid) to yield cell suspensions. The latter were subjected to centrifugation, and the cells were recovered.
The obtained cells were once washed with PBS. The residues were observed by eye, and their whiteness was rated as below.

Compound | whiteness of cells rated by eye (melanin synthesis inhibition) (1.6 ppm in culture medium) | whiteness of cells rated by eye (melanin synthesis inhibition) (3.1 ppm in culture medium) | whiteness of cells rated by eye (melanin synthesis inhibition) (6.3 ppm in culture medium) | whiteness of cells rated by eye (melanin synthesis inhibition) (0.8 ppm in culture medium) | melanin synthesis inhibiting activity (in words) (concentration not given)
CC1C=CCCCCCCCCCCC(O)CC1 (mixture of isomers) [5(EZ)-4-methylcyclohexadecenol] | + | ++ | +++ |  | 
CC1C=CCCCCCCCCCCC(=O)CC1 (mixture of isomers) [5(EZ)-4-methylcyclohexadecenone] | + | ++ | +++ |  | 
OC1CCCC=CCCCCCCCCCC1 (mixture of isomers) [5(EZ)-cyclohexadecenol] | + | ++ | +++ |  | 
OC1CCCCCCCC=CCCCCCCC1 (mixture of isomers) [9(EZ)-cycloheptadecenol] | + | ++ | +++ |  | 
O=C1CCCCCCCC=CCCCCCCC1 (mixture of isomers) [9(EZ)-cycloheptadecenone] | + | ++ | +++ |  | 
OC1CCCCCCCCC=CCCCCCCCCC1 (mixture of isomers) [10(EZ)-cycloeicosenol] | ++ | +++ | +++ |  | 
O=C1CCCCCCCCC=CCCCCCCCCC1 (mixture of isomers) [10(EZ)-cycloeicosenone] | ++ | +++ | +++ |  | 
CC1CCCCCCCCCCCCC(=O)C1 (stereo not drawn) [1-3-methylcyclopentadecanone] | + | ++ | +++ |  | 
O=C1CCCCCCCC=CCCCCCC1O (stereo not drawn) [2-hydroxy-8-cyclohexadecenone] | − | + |  |  | 
O=C1CCCCCCCCC=CCCCCCCC1O (stereo not drawn) [2-hydroxy-9-cyclooctadecenone] | ++ | +++ |  | + | 
O=C1CCCCCCCCCC=CCCCCCCCC1O (stereo not drawn) [2-hydroxy-10-cycloeicosenone] | +++ | +++ |  | ++ | 
O=C1CCCCCCCCCCCC=CCCCCCCCCCC1O (stereo not drawn) [2-hydroxy-12-cyclotetracosenone] | +++ | +++ |  | ++ | 
O=C1CCCCCCCCCCCCCCC=CCCCCCCCCCCCCC1O (stereo not drawn) [2-hydroxy-15-cyclotriacontenone, reference compound] |  | − |  |  | 
O=C1CCCCCCCCCCCCCCCCCCC1O (stereo not drawn) [2-hydroxycycloeicosanone] | +++ | +++ |  | ++ | 
O=C1CCCCCCCCCCCCCCC1O (stereo not drawn) [2-hydroxycyclohexadecanone] | − | + |  |  | 
O=C1CCCCCCCCCCCCCC1O (stereo not drawn) [2-hydroxycyclopentadecanone, reference compound] | − | − | +++ |  | 
CCCCCCCCCCCCC(C)=O [2-tetradecanone, reference compound] |  | − | − |  | 
CCCCCCCCCCCCCC(=O)CC [3-hexadecanone, reference compound] |  | − | − |  | 

Compound | whiteness of cells rated by eye (melanin synthesis inhibition) (1.6 ppm in culture medium) | whiteness of cells rated by eye (melanin synthesis inhibition) (3.1 ppm in culture medium) | whiteness of cells rated by eye (melanin synthesis inhibition) (6.3 ppm in culture medium) | whiteness of cells rated by eye (melanin synthesis inhibition) (0.8 ppm in culture medium) | melanin synthesis inhibiting activity (in words) (concentration not given)
CC1/C=C/CCCCCCCCCCC(=O)CC1 (stereo not drawn) [5(E)-4-methylcyclohexadecenone] | + | ++ | +++ |  | 
O=C1CCC/C=C/CCCCCCCCCC1 [5(E)-cyclohexadecenone] | + | ++ | +++ |  | 
O=C1CCC/C=C\CCCCCCCCCC1 [5(Z)-cyclohexadecenone] | + | ++ | +++ |  | 
CCCCCCCC(=O)CCCCCCC [8-pentadecanone, reference compound] |  | − | − |  | 
CCCCCCCCC(=O)CCCCCCCC [9-heptadecanone, reference compound] |  | − | − |  | 
OC[C@H]1O[C@@H](Oc2ccc(O)cc2)[C@H](O)[C@@H](O)[C@@H]1O [arbutin, reference compound] | − | + | ++ |  | much weaker melanin-synthesis inhibiting activities
OC1CCCCCCCCCCC1 [cyclododecanol, reference compound] |  | − | + |  | 
O=C1CCCCCCCCCCC1 [cyclododecanone, reference compound] |  | − | + |  | 
O=C1CCCCCCCCCCCCCCCCCCC1 [cycloeicosanone] | + | ++ | +++ |  | 
OC1CCCCCCCCCCCCCCCC1 [cycloheptadecanol] | + | ++ | +++ |  | 
O=C1CCCCCCCCCCCCCCCC1 [cycloheptadecanone] | + | ++ | +++ |  | 
OC1CCCCCCCCCCCCCCC1 [cyclohexadecanol] | + | ++ | +++ |  | 
O=C1CCCCCCCCCCCCCCC1 [cyclohexadecanone] | + | ++ | +++ |  | 
OC1CCCCCCCCCCCCCC1 [cyclopentadecanol] | + | ++ | +++ |  | 
O=C1CCCCCCCCCCCCCC1 [cyclopentadecanone] | + | ++ | +++ |  | 
CC(=O)CCC1=C(C)CCCC1(C)C [dihydro-β-ionone, reference compound] | − | + | ++ |  | 
CC(O)CCC1C(C)CCCC1(C)C (stereo not drawn) [tetrahydroionol, reference compound] | − | + | ++ |  | 
